Test results published in patent publication US8741644B2, “Method for producing mast cells from pluripotent stem cells” (Kyoto University, priority 2009, dated 2014).
Where no end group is shown, it is not given here.

Tested on: hESC-MCs
Assay: Activation of MCs: histamine release from hESC-MCs upon stimulation (ELISA histamine kit)
Assay type: cell-based, human
Conditions: hESC (H1)-derived mast cells, 15 min at 37° C., FIG. 13
Description: For stimulation, substance P (Sigma), compound 48/80 or control medium was added to a 25 μl cell suspension (4×10^5 MCs/ml) in 96-well plates, and incubated for further 15 min at 37° C. The reaction was stopped by adding 200 μl ice-cold buffer. The cells were separated by centrifugation at 300×g for 7 min at 4° C., and the supernatant was collected. The cell pellet was resuspended in […] containing 0.5% Triton-X and 0.1% bovine serum albumin (BSA), quick frozen in liquid nitrogen and thawed 4 times. After centrifugation at 12,000×g for 15 min at 4° C., the soluble extract was collected. Histamine levels were measured by an ELISA histamine kit (Beckman Coulter)

substance P (RPKPQQFFGLM; ends and bridges not checked; UniProt P20366 58-68, looked up) [neuropeptide used as mast cell stimulant (Sigma)]
degranulation to release histamine: dose-dependent degranulation
